Assays:
[1] = aqueous solubility of roflumilast reported in WO95/01338; assay type: physicochemical; details: cited 0.53 mg/l (21° C.) value converted to w/w %
Excerpt: Roflumilast and its synthesis were described in U.S. Pat. No. 5,712,298 (the “'298 patent”), incorporated herein by reference.* It has long been recognized that pharmaceutical compounds having phosphodiesterase (PDE)-inhibiting properties, such as roflumilast, are useful for treating psoriasis and atopic dermatitis ('298 patent, col 11 lines 52-61) and other chronic inflammatory and allergen-induced dermatoses. For treatment of such dermatoses, roflumilast emulsions, suspensions, gels or solutions for topical application have been described ('298 patent, col 12, lines 37-64). […] This low aqueous solubility has been problematic for the development of parenteral preparations and topical emulsions, suspensions, gels or solutions containing water. In U.S. Pat. No. 9,205,044 (incorporated herein by reference), the poor water solubility of roflumilast was overcome by using an alkoxylated fat, specifically polyoxyethylated 12-hydroxystearic acid, as a co-solvent for parenteral administration.

[2] = Procedure: (§1) Roflumilast (Batch A14367P from Interquim S.A.), 0.0061 grams, was weighed into a liquid scintillation vial. PG (propylene glycol, Spectrum Chemical lot IEC0004) was added dropwise with mixing to the vial containing roflumilast. After mixing each addition of PG, the tightly capped vial was returned to a water bath set at 25° C.
2.3200 grams of an equimolar blend of PG (Spectrum Chemical lot IEC0004) and distilled water was prepared and added to a scintillation vial containing 0.0012 grams of roflumilast (Batch A14367P from Interquim S.A.). […] An equimolar blend is 80.7% PG and 19.3% water on a weight/weight percent basis.

[3] = remark: listed apart in the source
Procedure: as §1, with “0.0205” for “0.0061”, “DEGEE (Transcutol P,” for “PG (propylene glycol, Spectrum Chemical”, “146063, Gattefosse)” for “IEC0004)”, “DEGEE,” for “PG,”
0.0111 grams of roflumilast (Batch A14367P from Interquim S.A.) was weighed into a liquid scintillation vial. An equimolar blend of DEGEE (Transcutol P, lot 146063, Gattefosse) and distilled water was prepared and added dropwise with mixing to the vial containing roflumilast. An equimolar blend is 88.3% DEGEE and 11.7% water on a weight/weight percent basis. After mixing each addition of equimolar DEGEE:Water, the tightly capped vial was returned to a water bath set at 25° C.

saturation solubility of roflumilast in water [1]: 0.000053 w/w %
calculated ideal solubility in equimolar PG:Water [2]: 0.0040 w/w %
observed saturation solubility greater than calculated ideal solubility in equimolar PG:Water [2]: 15 fold
observed saturation solubility in PG [2]: 0.3 w/w %
observed saturation solubility in equimolar PG:Water [2]: 0.06 w/w %
calculated ideal solubility in equimolar DEGEE:Water [3]: 0.019 w/w %
observed saturation solubility greater than calculated ideal solubility in equimolar DEGEE:Water [3]: 232 fold
observed saturation solubility in DEGEE [3]: 7.1 w/w %
observed saturation solubility in equimolar DEGEE:Water [3]: 4.4 w/w %
SMILES: O=C(Nc1c(Cl)cncc1Cl)c1ccc(OC(F)F)c(OCC2CC2)c1 [roflumilast, N-(3,5-dichloropyrid-4-yl)-3-cyclopropylmethoxy-4-difluoromethoxybenzamid-e]
